Laboratory results reported in patent publication US11560370B1, “5-membered heteroaryl carboxamide compounds for treatment of HBV” (Assembly Biosciences, Inc., priority 2018, dated 2023).
pEC50: −log10 of the molar value. Values joined by “and” are separate entries in the source; they are usually repeats but may differ in a detail not shown here. Equal values may be shown once.

What follows are compounds tested on HBV (assay: Viral production from HepAD38 cells, viral load by qPCR of HBV core sequence). Conditions: 5 days, supernatant HBV DNA by qPCR, read-out: Viral Load EC50 Activity range.
Assay type: cell-based
Summary of the method: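 HepAD38 cells in tetracycline-free medium with 2% FBS, 50,000 cells/well, treated 5 days at 37° C. with compound from 10 μM top concentration (1% DMSO final). Supernatant HBV DNA measured by TaqMan qPCR of core sequence against standards, versus DMSO wells; viability by CellTiter-Glo; EC50/CC50 by four-parameter fit.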

Cn1nc(C2CC3CC(N4CCOC4=O)CC3C2)c(C(=O)Nc2ccc(F)c(Cl)c2)c1N (stereo not drawn) [AIA-046] and Cn1nc(C2CC3CC(N4CCCS4(=O)=O)CC3C2)c(C(=O)Nc2ccc(F)c(Cl)c2)c1N (stereo not drawn) [AIA-044] cannot be ordered by pEC50: greater than 7.00 for the first, greater than 7.00 for the second.

Cn1nc(C2CC3CN(C(=O)OC(C)(C)C)CC3C2)c(C(=O)Nc2ccc(F)c(Cl)c2)c1N (stereo not drawn) [AIA-005] and Cn1nc(C2CC3CC(C(=O)O)CC3C2)c(C(=O)Nc2ccc(F)c(Cl)c2)c1N (stereo not drawn) [AIA-014] cannot be ordered by pEC50: greater than 7.00 for the first, greater than 7.00 for the second.

Cn1nc([C@@H]2CC3CC(O)(CS(C)(=O)=O)C[C@@H]3C2)c(C(=O)Nc2ccc(F)c(Cl)c2)c1N (stereo partly drawn) [AIA-227-1, 5-Amino-N-(3-chloro-4-fluorophenyl)-3-((2r,5r)-5-hydroxy-5-(methylsulfonylmethyl)octahydropentalen-2-yl)-1-methyl-1H-pyrazole-4-carboxamide] and Cn1nc(C2CC3CC(CCO)CC3C2)c(C(=O)Nc2ccc(F)c(Cl)c2)c1N (stereo not drawn) [AIA-019] cannot be ordered by pEC50: greater than 7.00 for the first, greater than 7.00 for the second.

First: COc1cccc([C@H]2CC[C@H](c3nn(C)c(N)c3C(=O)Nc3ccc(F)c(Cl)c3)C2)c1 [AIA-276C]
Second: COc1ccccc1C1CCC(c2nn(C)c(N)c2C(=O)Nc2ccc(F)c(Cl)c2)C1 (single isomer, unassigned) [AIA-275B, 5-Amino-N-(3-chloro-4-fluorophenyl)-3-(3-(2-methoxyphenyl)cyclopentyl)-1-methyl-1H-pyrazole-4-carboxamide]
The pEC50 of the first is higher: greater than 7.00 for the first, 6.30 to 7.00 for the second.

First: Cn1cc(C2CCC(c3nn(C)c(N)c3C(=O)Nc3ccc(F)c(Cl)c3)C2)cn1 (single isomer, unassigned) [AIA-004-A, 5-Amino-N-(3-chloro-4-fluorophenyl)-1-methyl-3-(3-(1-methyl-1H-pyrazol-4-yl)cyclopentyl)-1H-pyrazole-4-carboxamide]
Second: Cn1nc(C2CCN(c3ccccc3)C2)c(C(=O)Nc2ccc(F)c(Cl)c2)c1N (stereo not drawn) [AIA-262]
The pEC50 of the first is higher: greater than 7.00 for the first, 6.30 to 7.00 for the second. The first is the more potent here.

For “5-Amino-N-(3-chloro-4-fluorophenyl)-3-(3-(3-chlorophenyl)cyclopentyl)-1-methyl-1H-pyrazole-4-carboxamide [AIA-273]”, the pEC50 was > 7.00 and 6.30 to 7.00.

Same assay, conditions: Hepatitis B virus, HePAD38, 120 h, 5 days, supernatant HBV DNA by qPCR, read-out: Viral Load EC50 Activity range

First: COc1ccccc1C1CCC(c2nn(C)c(N)c2C(=O)Nc2ccc(F)c(Cl)c2)C1 (single isomer, unassigned) [AIA-275A, 5-Amino-N-(3-chloro-4-fluorophenyl)-3-(3-(2-methoxyphenyl)cyclopentyl)-1-methyl-1H-pyrazole-4-carboxamide]
Second: COc1cc(-c2cn(C)cn2)ccc1C1CCC(c2nn(C)c(N)c2C(=O)Nc2ccc(F)c(Cl)c2)C1 (single isomer, unassigned) [AIA-365-2, 5-Amino-N-(3-chloro-4-fluorophenyl)-3-(3-(2-methoxy-4-(1-methyl-1H-imidazol-4-yl)phenyl)cyclopentyl)-1-methyl-1H-pyrazole-4-carboxamide]
The pEC50 of the first is lower: 6.30 to 7.00 for the first, greater than 7.00 for the second.

Compared with Cn1nc(C2CC3CC(O)(CN4CCOCC4)CC3C2)c(C(=O)Nc2ccc(F)c(Cl)c2)c1N (stereo not drawn) [AIA-364-1, 5-Amin o-N-(3-chloro-4-fluorophenyl)-3-(5-hydroxy-5-(morpholinomethyl)octahydropentalen-2-yl)-1-methyl-1H-pyrazole-4-carboxamide], Cn1nc(C2CC3CC(O)(CSCCN4CCOCC4)CC3C2)c(C(=O)Nc2ccc(F)c(Cl)c2)c1N (single isomer, unassigned) [AIA-284-1, 5-Amino-N-(3-chloro-4-fluorophenyl)-3-(5-hydroxy-5-(((2-morpholinoethyl)thio)methyl)octahydropentalen-2-yl)-1-methyl-1H-pyrazole-4-carboxamide] is higher in pEC50: 5.00 to 6.30 for the first, greater than 7.00 for the second. The second is the more potent here.

First: Cn1cc(-c2ccc([C@H]3CC[C@@H](c4nn(C)c(N)c4C(=O)Nc4ccc(F)c(Cl)c4)C3)cc2)cn1 [AIA-050-A, 5-Amino-N-(3-chloro-4-fluorophenyl)-1-methyl-3-((1R,3S)-3-(4-(1-methyl-1H-pyrazol-4-yl)phenyl)cyclopentyl)-1H-pyrazole-4-carboxamide]
Second: COc1cc(-c2cnn(C)c2)ccc1C1CCC(c2nn(C)c(N)c2C(=O)Nc2ccc(F)c(Cl)c2)C1 (stereo not drawn) [AIA-369, 5-Amino-N-(3-chloro-4-fluorophenyl)-3-(3-(2-methoxy-4-(1-methyl-1H-pyrazol-4-yl)phenyl)cyclopentyl)-1-methyl-1H-pyrazole-4-carboxamide]
The pEC50 of the first is higher: greater than 7.00 for the first, 6.30 to 7.00 for the second.

Cn1nc(C2CC3CC(O)(CSC(C)(C)C)CC3C2)c(C(=O)Nc2ccc(F)c(Cl)c2)c1N (stereo not drawn) [AIA-262-1, 5-Amino-3-(5-((tert-butylthio)methyl)-5-hydroxyoctahydropentalen-2-yl)-N-(3-chloro-4-fluorophenyl)-1-methyl-1H-pyrazole-4-carboxamide] and CN(C)S(=O)(=O)CC1(O)CC2CC(c3nn(C)c(N)c3C(=O)Nc3ccc(F)c(Cl)c3)CC2C1 (stereo not drawn) [AIA-265, 5-Amino-N-(3-chloro-4-fluorophenyl)-3-(5-((N,N-dimethylsulfamoyl)methyl)-5-hydroxyoctahydropentalen-2-yl)-1-methyl-1H-pyrazole-4-carboxamide] cannot be ordered by pEC50: greater than 7.00 for the first, greater than 7.00 for the second.

COC(=O)N1CC2CC(c3nn(C)c(N)c3C(=O)Nc3ccc(F)c(Cl)c3)CC2C1 (stereo not drawn) [AIA-022] and Cn1nc(C2CC3CC(O)(C4CC4)CC3C2)c(C(=O)Nc2ccc(F)c(Cl)c2)c1N (stereo not drawn) [AIA-077, 5-Amino-N-(3-chloro-4-fluorophenyl)-3-(5-cyclopropyl-5-hydroxyoctahydropentalen-2-yl)-1-methyl-1H-pyrazole-4-carboxamide] cannot be ordered by pEC50: greater than 7.00 for the first, greater than 7.00 for the second.

First: Cn1nc(C2CC3CC(OCC(F)(F)F)CC3C2)c(C(=O)Nc2ccc(F)c(Cl)c2)c1N (stereo not drawn) [AIA-101, 5-Amino-N-(3-chloro-4-fluorophenyl)-1-methyl-3-(5-(2,2,2-trifluoroethoxy)octahydropentalen-2-yl)-1H-pyrazole-4-carboxamide]
Second: Cn1nc(C2CC3CC(N4CCC4)CC3C2)c(C(=O)Nc2ccc(F)c(Cl)c2)c1N (stereo not drawn) [AIA-013, 5-Amino-3-(5-(azetidin-1-yl)octahydropentalen-2-yl)-N-(3-chloro-4-fluorophenyl)-1-methyl-1H-pyrazole-4-carboxamide]
The pEC50 of the first is higher: greater than 7.00 for the first, 6.30 to 7.00 for the second. The first is the more potent here.

Cn1nc(C2CC3CC(O)(CSC(C)(C)C)CC3C2)c(C(=O)Nc2ccc(F)c(Cl)c2)c1N (single isomer, unassigned) [AIA-262-2, 5-Amino-3-(5-((tert-butylthio)methyl)-5-hydroxyoctahydropentalen-2-yl)-N-(3-chloro-4-fluorophenyl)-1-methyl-1H-pyrazole-4-carboxamide] and Cn1nc(C2CC3CC(N4CCOCC4)CC3C2)c(C(=O)Nc2ccc(F)c(Cl)c2)c1N (stereo not drawn) [AIA-041, 5-Amino-N-(3-chloro-4-fluorophenyl)-1-methyl-3-(5-morpholinooctahydropentalen-2-yl)-1H-pyrazole-4-carboxamide] cannot be ordered by pEC50: greater than 7.00 for the first, greater than 7.00 for the second.

First: COc1cc(C(=O)NCCN)ccc1C1CCC(c2nn(C)c(N)c2C(=O)Nc2ccc(F)c(Cl)c2)C1 (stereo not drawn) [AIA-388, 5-Amino-3-(3-(4-((2-aminoethyl)carbamoyl)-2-methoxyphenyl)cyclopentyl)-N-(3-chloro-4-fluorophenyl)-1-methyl-1H-pyrazole-4-carboxamide]
Second: CC(=O)Nc1ccc(C2CCC(c3nn(C)c(N)c3C(=O)Nc3ccc(F)c(Cl)c3)C2)cc1 (stereo not drawn) [AIA-294, 3-(3-(4-Acetamidophenyl)cyclopentyl)-5-amino-N-(3-chloro-4-fluorophenyl)-1-methyl-1H-pyrazole-4-carboxamide]
The pEC50 of the first is lower: 6.30 to 7.00 for the first, greater than 7.00 for the second.
